{"source": "patent US20120015090A1", "about": "“READILY WATER-SOLUBLE MYRICITRIN COMPOSITION” (SAN-EI GEN F.F.I., INC., priority 2009, published 2012)", "type_in_all_cases": "physicochemical", "key": {"[1]": {"test": "Evaluation of MY composition solubility in water (Experiment Example 1)", "method": "The MY and γ-CD were used in the proportions (mole ratios) presented in Table 1, and […] different powdery MY compositions (Samples 1 to 22) were prepared according to the method of Example 1.\nThe powdery MY composition (Samples 1 to 22) or a control MY (MY itself) was added to water (20 ml) in a 100-ml Erlenmeyer flask while stirring. The samples were added until they could not be dissolved further, and formed deposits. Each solution was shaken (Bio-Shaker BR-3000LF, 160 rpm, amplitude=40 mm, Taitec Co., Ltd.) at 25° C. for 40 hours, and centrifuged at 9,000 rpm for 10 min to collect the supernatant. The supernatant was appropriately diluted with a 0.1% phosphoric acid aqueous solution, and absorbance (346 nm) was measured.\n1) MY (50 mg) was accurately weighed, and dissolved in methanol to make the volume precisely 100 ml. 2) The solution was appropriately diluted with a 0.1% phosphoric acid aqueous solution to prepare MY solutions of 0.0001, 0.0005, 0.001, 0.005, and 0.01 mg/ml concentrations. 3) The absorbance of the standard solution at a wavelength of maximum absorption was measured with a spectrophotometer. 4) A standard curve was created based on the content of MY in the MY solution, and the measured absorbance value."}, "[2]": {"test": "Evaluation of preservation stability, presence or absence of deposits in acid and sugar solutions (Experiment Example 3)", "parameters": "key: +: the presence of deposits; −: the absence of deposits; x: no dissolution in the acid and sugar solution", "conditions": "210 days", "method": "MY and γ-CD were used in the 1:1 proportion (mole ratio) to prepare a powder composition (sample 1) according to the method of Example 1. […] Each solution was hot-packed in a 100-ml glass vial (93° C.). The drinks so prepared were allowed to cool, and placed under 50° C., room temperature (25±2° C.), and low-temperature (5° C.) conditions for 210 days. The presence or absence of deposits was then checked by visual inspection. […] The drinks so prepared were allowed to cool, and placed under 50° C., room temperature (25±2° C.), and low-temperature (5° C.) conditions for 210 days. The presence or absence of deposits was then observed. In the table, the symbol “+” means the presence of deposits, and “−” the absence of deposits. The symbol “x” means no dissolution in the acid and sugar solution."}, "[3]": {"test": "Evaluation of water solubility with α- and β-cyclodextrins (Reference Experiment Example)", "method": "Evaluation of Water Solubility with α- and β-Cyclodextrins Instead of γ-CD, α-cyclodextrin (α-CD) and β-cyclodextrin (β-CD) (both from Nihon Shokuhin Kako Co., Ltd.) were used to prepare MY inclusions, and the solubility of the compositions in water was evaluated.\nSpecifically, an MY composition containing 3 moles of α-CD (Reference Sample 1), or an MY composition containing 3 moles of β-CD (Reference Sample 2) per mole of MY were prepared according to the method of Example 1, and the solubility of each composition in water was determined as an MY solubility (mg/ml) according to the method of Experiment Example 1. The solubility (mg/ml) of the MY itself was also determined as a control, and the solubility (fold) was calculated from the relative ratio of the two."}, "[4]": {"test": "Evaluation of the solubility of other flavonoids in water (Experiment Example 2)", "method": "The solubility (mg/ml) of each composition in water in terms of the flavonoid was then determined according to the method of Experiment Example 1. The solubility (mg/ml) of the flavonoid itself in water was also determined as a control, and the solubility (fold) was calculated from the relative ratio of the two."}}}
{"smiles": "C[C@H]1O[C@@H](Oc2c(-c3cc(O)c(O)c(O)c3)oc3cc(O)cc(O)c3c2=O)[C@@H](O)[C@@H](O)[C@@H]1O", "note": "[MY, myricitrin]", "values": [{"measurement": "Solubility (fold)", "setting": "[1]; relative to solubility of MY itself (non-inclusion) = 1, 25° C., 40 hours", "value": 1, "unit": "fold"}, {"measurement": "Solubility (in terms of myricitrin, mg/ml)", "setting": "[1]; shaken at 25° C. for 40 hours, MY:γ-CD = 1:X per sample", "value": 0.12, "unit": "mg/mL"}, {"measurement": "presence or absence of deposits", "setting": "[2]; pH 3, 50° C., flavonoid concentration 0.05%", "value": "+"}, {"measurement": "presence or absence of deposits", "setting": "[2]; pH 3, 50° C., flavonoid concentration 0.10%", "value": "+"}, {"measurement": "presence or absence of deposits", "setting": "[2]; pH 3, refrigerated (5° C.), flavonoid concentration 0.05%", "value": "+"}, {"measurement": "presence or absence of deposits", "setting": "[2]; pH 3, refrigerated (5° C.), flavonoid concentration 0.10%", "value": "+"}, {"measurement": "presence or absence of deposits", "setting": "[2]; pH 3, room temperature, flavonoid concentration 0.05%", "value": "+"}, {"measurement": "presence or absence of deposits", "setting": "[2]; pH 3, room temperature, flavonoid concentration 0.10%", "value": "+"}, {"measurement": "presence or absence of deposits", "setting": "[2]; pH 6, 50° C., flavonoid concentration 0.05%", "value": "−"}, {"measurement": "presence or absence of deposits", "setting": "[2]; pH 6, 50° C., flavonoid concentration 0.10%", "value": "−"}, {"measurement": "presence or absence of deposits", "setting": "[2]; pH 6, refrigerated (5° C.), flavonoid concentration 0.05%", "value": "+"}, {"measurement": "presence or absence of deposits", "setting": "[2]; pH 6, refrigerated (5° C.), flavonoid concentration 0.10%", "value": "+"}, {"measurement": "presence or absence of deposits", "setting": "[2]; pH 6, room temperature, flavonoid concentration 0.05%", "value": "+"}, {"measurement": "presence or absence of deposits", "setting": "[2]; pH 6, room temperature, flavonoid concentration 0.10%", "value": "+"}, {"measurement": "presence or absence of deposits", "setting": "[2]; pH 9, 50° C., flavonoid concentration 0.05%", "value": "−"}, {"measurement": "presence or absence of deposits", "setting": "[2]; pH 9, 50° C., flavonoid concentration 0.10%", "value": "−"}, {"measurement": "presence or absence of deposits", "setting": "[2]; pH 9, refrigerated (5° C.), flavonoid concentration 0.05%", "value": "−"}, {"measurement": "presence or absence of deposits", "setting": "[2]; pH 9, refrigerated (5° C.), flavonoid concentration 0.10%", "value": "−"}, {"measurement": "presence or absence of deposits", "setting": "[2]; pH 9, room temperature, flavonoid concentration 0.05%", "value": "−"}, {"measurement": "presence or absence of deposits", "setting": "[2]; pH 9, room temperature, flavonoid concentration 0.10%", "value": "−"}, {"measurement": "Solubility (fold)", "setting": "[3]; relative to MY alone = 1", "value": 1, "unit": "fold"}, {"measurement": "Solubility (in terms of myricitrin, mg/ml)", "setting": "[3]; water, method of Experiment Example 1, MY:CD = 1:3 mole ratio", "value": 0.10, "unit": "mg/mL"}, {"measurement": "Solubility (fold) (in terms of flavonoids)", "setting": "[4]; Flavonoid:γ-CD = 1:0 (mole ratio), flavonoid itself, reference", "value": 1, "unit": "fold"}, {"measurement": "Solubility (fold) (in terms of flavonoids)", "setting": "[4]; Flavonoid:γ-CD = 1:1 (mole ratio)", "value": 157.8, "unit": "fold"}, {"measurement": "Solubility (fold) (in terms of flavonoids)", "setting": "[4]; Flavonoid:γ-CD = 1:3 (mole ratio)", "value": 256.2, "unit": "fold"}, {"measurement": "Solubility (fold) (in terms of flavonoids)", "setting": "[4]; Flavonoid:γ-CD = 1:5 (mole ratio)", "value": 187.4, "unit": "fold"}, {"measurement": "Solubility (fold) (in terms of flavonoids)", "setting": "[4]; Flavonoid:γ-CD = 1:10 (mole ratio)", "value": 49.3, "unit": "fold"}, {"measurement": "Solubility (fold) (in terms of flavonoids)", "setting": "[4]; Flavonoid:γ-CD = 1:15 (mole ratio)", "value": 59.9, "unit": "fold"}, {"measurement": "Solubility (fold) (in terms of flavonoids)", "setting": "[4]; Flavonoid:γ-CD = 1:20 (mole ratio)", "value": 46.3, "unit": "fold"}]}
